Measured values from ChEMBL document CHEMBL1201862, “PubChem BioAssay data set” (2004).
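Step 1: Grow cells in 96-well plates. Step 2: Expose to compound for 48 hours at 5 concentrations. Step 3: Interpolate endpoints linearly; if unreached, use highest concentration. GI50 marks 50% less growth.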 The source made the active and inactive calls. No stated cut-off is given here; in the data, active = GI50 up to about 1.1 µM and inactive = higher.

Columns and labels:
Test in all cases: inhibition of tumour cell growth, NCI panel, 48 h
MDA-N = test system: MDA-N
NCI-H522 = test system: NCI-H522
K562 = test system: K562
MCF7 = test system: MCF7
NCI/ADR-RES = test system: NCI/ADR-RES
786-0 = test system: 786-0
TK-10 = test system: TK-10
MDA-MB-435 = test system: MDA-MB-435
NCI-H23 = test system: NCI-H23
HCT-15 = test system: HCT-15
OVCAR-4 = test system: OVCAR-4
IGROV-1 = test system: IGROV-1
ACHN = test system: ACHN
Malme-3M = test system: Malme-3M
HL-60 = test system: HL-60
SK-OV-3 = test system: SK-OV-3
HOP-62 = test system: HOP-62
SF-295 = test system: SF-295

Row | Compound | GI50 (MDA-N) | GI50 (NCI-H522) | GI50 (K562) | GI50 (MCF7) | GI50 (NCI/ADR-RES) | GI50 (786-0) | GI50 (TK-10) | GI50 (MDA-MB-435) | GI50 (NCI-H23) | GI50 (HCT-15) | GI50 (OVCAR-4) | GI50 (IGROV-1) | GI50 (ACHN) | GI50 (Malme-3M) | GI50 (HL-60) | GI50 (SK-OV-3) | GI50 (HOP-62) | GI50 (SF-295)
1 | CC1CCCC(CC(=O)O)(CC(=O)O)C1 (stereo not given) | > 100 µM (inactive) | > 100 µM (inactive) | > 100 µM (inactive) | > 100 µM (inactive) | > 100 µM (inactive) | > 100 µM (inactive) | > 100 µM (inactive) | > 100 µM (inactive) | > 100 µM (inactive) | > 100 µM | > 100 µM (inactive) | > 100 µM (inactive) | > 100 µM (inactive) | > 100 µM (inactive) | > 100 µM (inactive) | – | – | –
2 | Cc1sc2nc(-c3ccc([N+](=O)[O-])cc3)c(/C=N/N=C(N)N)n2c1C | 0.373 µM (active) | 1.32 µM (inactive) | 0.202 µM (active) | 0.555 µM (active) | 2.76 µM (inactive) | 0.221 µM (active) | 1.5 µM (inactive) | 0.979 µM (active) | 1.43 µM (inactive) | 1.35 µM | – | 1.4 µM (inactive) | 1.33 µM (inactive) | 1.17 µM (inactive) | 1.1 µM (active) | 1.7 µM (inactive) | 0.689 µM (active) | 1.16 µM (inactive)
3 | COC(=O)c1cn(CCCC(=O)O)nn1 | > 100 µM (inactive) | – | – | > 100 µM (inactive) | > 100 µM (inactive) | > 100 µM (inactive) | > 100 µM (inactive) | > 100 µM (inactive) | > 100 µM (inactive) | > 100 µM | > 100 µM (inactive) | > 100 µM (inactive) | > 100 µM (inactive) | > 100 µM (inactive) | – | – | > 100 µM (inactive) | > 100 µM (inactive)
4 | COc1ccc(/C=C2\CCS(=O)(=O)c3ccccc3C2=O)cc1 | 31.4 µM (inactive) | – | 30.1 µM (inactive) | 35.4 µM (inactive) | 20.1 µM (inactive) | 18.3 µM (inactive) | 23.2 µM (inactive) | 26.9 µM (inactive) | 25.7 µM (inactive) | 19.6 µM | 24.5 µM (inactive) | 18.2 µM (inactive) | 24.4 µM (inactive) | – | 21.5 µM (inactive) | 38.3 µM (inactive) | 36.3 µM (inactive) | 35 µM (inactive)
5 | COc1ccc(OC)c(NC2=NCCO2)c1 | 45.4 µM (inactive) | > 100 µM (inactive) | > 100 µM (inactive) | > 100 µM (inactive) | > 100 µM (inactive) | > 100 µM (inactive) | > 100 µM (inactive) | 89.7 µM (inactive) | 52.4 µM (inactive) | > 100 µM | > 100 µM (inactive) | > 100 µM (inactive) | > 100 µM (inactive) | > 100 µM (inactive) | 83.8 µM (inactive) | – | > 100 µM (inactive) | > 100 µM (inactive)
6 | CCC(C)C(=O)OC1C(=O)OC2CC3C(C)=CC(=O)C(O)C3(C)C3C4(O)OCC23C1C(C)C4O (stereo not given) | < 0.0169 µM (active) | < 0.0105 µM (active) | < 0.01 µM (active) | < 0.01 µM (active) | 0.347 µM (active) | < 0.0166 µM (active) | < 0.0188 µM (active) | < 0.0124 µM (active) | < 0.0144 µM (active) | < 0.0185 µM | 0.0314 µM (active) | < 0.01 µM (active) | < 0.0171 µM (active) | < 0.0104 µM (active) | – | 0.392 µM (active) | < 0.019 µM (active) | < 0.0204 µM (active)
7 | COc1ccc2cc(Oc3ccc(Cl)cc3)c(=O)oc2c1 | > 100 µM (inactive) | > 100 µM (inactive) | > 100 µM (inactive) | > 100 µM (inactive) | – | > 100 µM (inactive) | > 100 µM (inactive) | – | > 100 µM (inactive) | > 100 µM | > 100 µM (inactive) | > 100 µM (inactive) | > 100 µM (inactive) | > 100 µM (inactive) | > 100 µM (inactive) | – | 50.1 µM (inactive) | 60.5 µM (inactive)
8 | CCOC(=O)C12OC(OCC)(CC1(OCC)OCC)C1(CC1)C2=O (stereo not given) | > 100 µM (inactive) | – | > 100 µM (inactive) | > 100 µM (inactive) | > 100 µM (inactive) | > 100 µM (inactive) | > 100 µM (inactive) | > 100 µM (inactive) | > 100 µM (inactive) | > 100 µM | > 100 µM (inactive) | > 100 µM (inactive) | > 100 µM (inactive) | > 100 µM (inactive) | – | > 100 µM (inactive) | > 100 µM (inactive) | > 100 µM (inactive)
9 | O=C(c1ccco1)N(C(=O)N1CCC(c2ccccc2)CC1)c1ccccc1 | 42.5 µM (inactive) | – | 29 µM (inactive) | 66.5 µM (inactive) | 23.2 µM (inactive) | 92.9 µM (inactive) | 55.3 µM (inactive) | 35 µM (inactive) | 45.7 µM (inactive) | 42 µM | – | 25.9 µM (inactive) | > 100 µM (inactive) | > 100 µM (inactive) | 19.3 µM (inactive) | 81.5 µM (inactive) | – | –
10 | CCOC(=O)c1[nH]cc(C)c1-c1ccn(-c2ccccc2)c1 | 35.6 µM (inactive) | 20.1 µM (inactive) | 21.1 µM (inactive) | 61 µM (inactive) | 36.2 µM (inactive) | 53.2 µM (inactive) | 27.5 µM (inactive) | 41.9 µM (inactive) | 49.5 µM (inactive) | 54.5 µM | 41.9 µM (inactive) | 14.9 µM (inactive) | 50.2 µM (inactive) | – | – | > 100 µM (inactive) | > 100 µM (inactive) | 56.4 µM (inactive)
11 | CCOC(=O)NC(Nc1ccc(S(=O)(=O)Nc2ccc(OC)nn2)cc1)(C(F)(F)F)C(F)(F)F | 42 µM (inactive) | – | 32.2 µM (inactive) | 36.4 µM (inactive) | 23.9 µM (inactive) | 20.9 µM (inactive) | 27.7 µM (inactive) | 14.5 µM (inactive) | 31.3 µM (inactive) | 49.1 µM | 26.7 µM (inactive) | 22.8 µM (inactive) | 27 µM (inactive) | 20.2 µM (inactive) | 26.7 µM (inactive) | 52 µM (inactive) | 25.8 µM (inactive) | 37 µM (inactive)
12 | O=C(Nc1ccccc1)c1cc(S(=O)(=O)n2ccnc2O)c(S)cc1Cl | > 100 µM (inactive) | > 100 µM (inactive) | > 100 µM (inactive) | > 100 µM (inactive) | > 100 µM (inactive) | > 100 µM (inactive) | > 100 µM (inactive) | > 100 µM (inactive) | > 100 µM (inactive) | > 100 µM | – | > 100 µM (inactive) | > 100 µM (inactive) | – | > 100 µM (inactive) | – | > 100 µM (inactive) | > 100 µM (inactive)
13 | CCOC(=O)[C@@]12C[C@](/C=C/OC)(O[Si](C)(C)C)[C@@]13c1cc(OC)c(OC)cc1CCN3C(=O)C2O (stereo not given in full) | > 100 µM (inactive) | – | > 100 µM (inactive) | > 100 µM (inactive) | > 100 µM (inactive) | > 100 µM (inactive) | > 100 µM (inactive) | > 100 µM (inactive) | > 100 µM (inactive) | > 100 µM | > 100 µM (inactive) | > 100 µM (inactive) | > 100 µM (inactive) | > 100 µM (inactive) | – | > 100 µM (inactive) | > 100 µM (inactive) | > 100 µM (inactive)
